Source: the NIST ThermoML archive (doi:10.1021/acs.jced.7b00222)
Where “and” joins values, the source holds several entries; their conditions need not be identical. Identical values can stand only once.

Settings: Liquid, Optical interferometry

CO [methanol]
Settings	thermal diffusivity
297.95 K, 5300000 kPa	2.19e-07 m2/s
298.15 K, 4220000 kPa	2.17e-07 m2/s
299.15 K, 0 kPa	9.7e-08 m2/s
299.15 K, 880000 kPa	1.59e-07 m2/s
299.15 K, 2430000 kPa	1.86e-07 m2/s
299.15 K, 3100000 kPa	1.92e-07 m2/s
299.15 K, 3120000 kPa	1.99e-07 m2/s
299.75 K, 5000000 kPa	2.37e-07 m2/s
299.85 K, 400000 kPa	1.32e-07 m2/s
300.15 K, 370000 kPa	1.35e-07 m2/s
300.75 K, 1750000 kPa	1.8e-07 m2/s
300.95 K, 860000 kPa	1.57e-07 m2/s
301.05 K, 1290000 kPa	1.7e-07 m2/s and 1.66e-07 m2/s

Settings	thermal diffusivity [m2/s]
299.15 K	9.7e-08
